Reference: patent publication US6613769B1, “Tryptase inhibitors” (Max-Planck-Gesellschaft zur Föderung der Wissenschaften. …, priority 1998, dated 2003)
Where a name gives a salt, the structure may show the parent alone.

biological target: T1, human tryptase (Homo sapiens, UniProt P20231); assay: Inhibition of human tryptase: cleavage of chromogenic substrate tos-Gly-Pro-Arg-pNA, equilibrium conditions; format: biochemical; conditions: tryptase from human lung tissue; 50 μg of heparin/ml; in the presence of substrate tos-Gly-Pro-Arg-pNA, 405 nm; read-out: Kiapp (apparent dissociation constant)
T1 construct: from tissue; host or cells: human lung tissue
Source text: The documented pathophysiological effects of mast cell tryptase are brought about directly by the enzymic activity of the protease. Accordingly, they are reduced or blocked by inhibitors which inhibit the enzymatic activity of the tryptase. The equilibrium dissociation constant Ki of the enzyme-inhibitor complex is a suitable measure of the affinity of a reversible inhibitor for the target protease. This Ki value can be determined by measuring the effect of the inhibitor on the tryptase-induced cleavage of a chromogenic peptide-p-nitroanilide substrate.
The dissociation constants of the tryptase-inhibitor complexes are determined under equilibrium conditions in accordance with the general recommendations of Bieth (Bieth JG, Pathophysiological interpretation of kinetic constants of protease inhibitors, Bull. Europ. Physiopath. Resp. 16:183-195, 1980) and the methods of Sommerhoff et al. (Sommerhoff CP et al., A. Kazal-type inhibitor of human mast cell tryptase: Isolation from the medical leech Hirudo medicinalis, characterization, and sequence analysis, Biol. Chem. Hoppe-Seyler 375: 685-694, 1994).
Human tryptase is prepared in a pure state from lung tissue; the specific activity of the isolated protease, determined by means of titration, is normally 85% of the theoretical value. Constant quantities of tryptase are incubated with increasing quantities of the inhibitors in the presence of 50 μg of heparin/ml for stabilizing the protease. After the equilibrium has been established between the reaction partners, the remaining enzyme activity is determined after adding the peptide-p-nitroanilide substrate tos-Gly-Pro-Arg-pNA, the cleavage of which is monitored at 405 nm over a period of 3 min. Alternatively, the residual enzymic activity can also be determined using fluorogenic substrates. The apparent dissociation constants Kiapp (i.e. in the presence of substrate) are subsequently ascertained by nonlinear regression by fitting the enzyme rates to the general equation for reversible inhibitors (Morrison JF, Kinetics of the reversible inhibition of enzyme-catalysed reactions by tight-binding inhibitors, Biochim. Biophys. Acta 185, 269-286, 1969):
V1/V0=131 {Et+lt+Kiapp−[(Et+lt+Kiapp)^2−4Etlt]^½}/2Et
In this equation, V1, and V0 are the rates in the presence and absence of the inhibitor, respectively, and Et and lt are the concentrations of the tryptase and of the inhibitor.
The apparent dissociation constants which were determined for the compounds according to the invention are given in Table A below, in which the numbers of the compounds correspond to the numbers of the compounds in the examples.

T1 sequence (P20231 31-275): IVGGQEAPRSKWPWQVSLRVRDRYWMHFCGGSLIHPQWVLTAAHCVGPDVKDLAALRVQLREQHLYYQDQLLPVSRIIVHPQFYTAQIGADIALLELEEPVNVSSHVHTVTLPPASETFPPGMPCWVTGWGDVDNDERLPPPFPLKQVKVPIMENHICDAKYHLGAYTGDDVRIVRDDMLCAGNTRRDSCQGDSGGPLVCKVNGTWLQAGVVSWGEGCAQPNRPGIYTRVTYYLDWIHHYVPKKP

SMILES | Ki [nM]
NCc1cccc(C(=O)N2CCN(C(=O)c3cccc(C(=O)N4CCN(C(=O)c5cccc(CN)c5)CC4)n3)CC2)c1 [Compound 1, Pyridine-2,6-dicarbobis[4-(3-aminomethylbenzoyl)-1-piperazide]] | 3000
NCc1cccc(C(=O)NC2CCN(C(=O)c3cccc(C(=O)N4CCC(NC(=O)c5cccc(CN)c5)CC4)n3)CC2)c1 [Compound 11, Pyridine-2,6-dicarbobis[4-(3-aminomethylbenzoylamino)-1-piperidide]] | 30
CC(C)(c1ccc(OCC(=O)NCc2ccc(NC(=N)N)cc2)cc1)c1ccc(OCC(=O)NCc2ccc(NC(=N)N)cc2)cc1 [Compound 31, 2,2-bis-[4-(4-Guanidinylbenzylamino)carbonylmethoxy-phenyl]propane Dihydroacetate] | 200
CC(C)(c1ccc(OCC(=O)NCC(=O)NCCCCN)cc1)c1ccc(OCC(=O)NCC(=O)NCCCCN)cc1 [Compound 34, 2,2-bis-[4-(10-Amino-3,6-diaza-2,5-dioxodecyloxy)-phenyl]propane Dihydrochloride] | 2000
CC(C)(c1ccc(OC(=O)N2CCN(C(=O)NCc3ccc(CN)cc3)CC2)cc1)c1ccc(OC(=O)N2CCN(C(=O)NCc3ccc(CN)cc3)CC2)cc1 [Compound 36, 2,2-bis-(4-[4-(4-Aminomethylbenzylcarbamoyl)-1-piperazinylcarbonyloxy]phenyl)propane Dihydrochloride] | 28

The remaining lines, values ahead:

Ki [nM] | SMILES
3000 | NCC1CCC(C(=O)NC2CCN(C(=O)c3cccc(C(=O)N4CCC(NC(=O)C5CCC(CN)CC5)CC4)n3)CC2)CC1 (stereo not drawn) [Compound 15, Pyridine-2,6-dicarbobis[4-(4-aminomethylcyclohexyl-carbonylamino)-1-piperidide]]
22000 | NCC1CCC(C(=O)N2CCN(C(=O)Nc3ccc(Oc4ccc(NC(=O)N5CCN(C(=O)C6CCC(CN)CC6)CC5)cc4)cc3)CC2)CC1 (stereo not drawn) [Compound 17, bis{4-[4-(4-Aminomethyl)cyclohexanoylpiperazin-1-yl-]-carbonyl}-4,4′-diaminodiphenyl Ether Dihydrochloride]
100 | NCc1cccc(C(=O)N2CCN(C(=O)Nc3ccc(Oc4ccc(NC(=O)N5CCN(C(=O)c6cccc(CN)c6)CC5)cc4)cc3)CC2)c1 [Compound 21, Bis{4-[4-(3-Aminomethyl)benzoylpiperazin-1-yl]-carbonyl}-4,4′-diaminodiphenyl Ether Dihydrochloride]
800 | NCC1CCC(C(=O)NC2CCN(C(=O)NC3CCC(CC4CCC(NC(=O)N5CCC(NC(=O)C6CCC(CN)CC6)CC5)CC4)CC3)CC2)CC1 (stereo not drawn) [Compound 23, di{4-[4-(4-Aminomethyl)cyclohexanoylamino]piperidin-1-ylcarbamoyl}cyclohexylmethane Dihydrochloride]
